According to patent US9556159B2, “Renin inhibitor” (MITSUBISHI TANABE PHARMA CORPORATION, priority 2012, dated 2017):
Like-named read-outs stand apart in the source and are kept apart here.

Biological target: T1, Recombinant human renin (Homo sapiens, UniProt P00797)
T1 sequence (P00797 67-406): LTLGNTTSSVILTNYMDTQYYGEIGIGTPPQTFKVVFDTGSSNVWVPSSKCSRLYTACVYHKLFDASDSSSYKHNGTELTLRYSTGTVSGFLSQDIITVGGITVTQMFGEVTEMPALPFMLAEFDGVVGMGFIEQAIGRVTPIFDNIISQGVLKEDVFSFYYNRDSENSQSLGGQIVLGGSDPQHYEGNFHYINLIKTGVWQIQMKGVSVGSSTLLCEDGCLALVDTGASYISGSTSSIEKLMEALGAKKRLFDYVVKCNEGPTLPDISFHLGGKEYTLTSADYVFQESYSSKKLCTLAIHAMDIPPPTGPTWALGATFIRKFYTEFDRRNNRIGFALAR
Assay: Inhibitory activity against human renin (fluorogenic peptide substrate)
Format: biochemical
Settings: 37° C. for 1 hour

[1] = 50% inhibitory concentration (IC50) against human renin

| SMILES | IC50 [1] [nM] | IC50 (read-out: IC50) [nM] |
| --- | --- | --- |
| COC(=O)NCCCc1sc([C@@H](C)N(C(=O)[C@H]2CNCCO2)C2CC2)cc1-c1cnc(N)nc1 [Example 432] | 3.3 |  |
| CCc1nc([C@@H](C)N(C(=O)[C@H]2CN[C@@H](COC)CO2)C2CC2)cc2c1ncn2CCCOC [Example 393] | 3.7 |  |
| COC(=O)NCCCc1cc([C@@H](C)N(C(=O)[C@H]2CN[C@@H](CF)CO2)C2CC2)nn1-c1ccc(F)cc1 [Example 372] | 6 |  |
| COC[C@@H]1CNC[C@H](C(=O)N(C2CC2)[C@H](C)c2cc(OC)nc(CCCNC(=O)OC)n2)O1 [Example 386] | 3.2 |  |
| COC(=O)NCCCc1cc([C@@H](C)N(C(=O)[C@H]2CNCCO2)C2CC2)nc2ccoc12 [Example 167] | 4.1 |  |
| COC(=O)NCCCc1nc([C@@H](C)N(C(=O)[C@H]2CNCCO2)C2CC2)ccc1OC [Example 74] |  | 4.6 |
| CCCCCn1cc([C@@H](C)N(C(=O)[C@H]2CNCCO2)C2CC2)nc1-c1ccccc1 [Example 200] | 4.5 |  |
| COC(=O)NCCCc1cc(C2CC2)nc([C@@H](C)N(C(=O)[C@H]2CNCCO2)C2CC2)c1 [Example 133] | 1.6 |  |
| COc1ccc2nc([C@@H](C)N(C(=O)[C@H]3CNCCO3)C3CC3)cc(CCCNC(C)=O)c2c1 [Example 156] | 2.1 |  |
| COC(=O)NCCCn1cc([C@@H](C)N(C(=O)[C@H]2CNCCO2)C2CC2)c2ncc(C)nc21 [Example 102] |  | 0.4 |
| COC(=O)NCCCc1cc([C@@H](C)N(C(=O)[C@H]2CNCCO2)C2CC2)cc(N(C)S(C)(=O)=O)n1 [Example 362] | 5 |  |
| COC(=O)NCCCn1nc([C@@H](C)N(C(=O)[C@H]2CNCCO2)C2CC2)c2ncc(C)cc21 [Example 70] |  | 1 |
| CCc1nc([C@@H](C)N(C(=O)[C@H]2CNCCO2)C2CC2)cc2c1ccn2Cc1ccccc1 [Example 147] | 2.5 |  |
| COCCCc1cc([C@@H](C)N(C(=O)[C@H]2CNC[C@@H](COC)O2)C2CC2)cc(CCCNC(=O)OC)n1 [Example 382] | 3.6 |  |
| COCCCn1cc(COC)c2c(C(C)C)nc([C@@H](C)N(C(=O)[C@H]3CNCCO3)C3CC3)cc21 [Example 153] | 2.2 |  |
| CCc1cc([C@@H](C)N(C(=O)[C@H]2CNCCO2)C2CC2)nc2ccccc12 [Example 212] | 4.6 |  |
| COC[C@@H]1CNC[C@H](C(=O)N(C2CC2)[C@H](C)c2cn(CCCNC(=O)OC)c(C(F)(F)F)n2)O1 [Example 320] | 3.2 |  |

| SMILES | IC50 [1] [nM] | IC50 (read-out: IC50) [nM] |
| --- | --- | --- |
| COC(=O)NCCCn1cc([C@H](C)N(C(=O)[C@H]2CNCCO2)C2CC2)nc1Oc1ccccc1 [Example 313] | 2.5 |  |
| COC(=O)NCCCc1nc(C(C)N(C(=O)[C@H]2CNCCO2)C2CC2)c(C)n1-c1ccccc1 (stereo partly shown) [Example 343] | 5.3 |  |
| CCc1cc([C@@H](C)N(C(=O)[C@H]2CNCCO2)C2CC2)cc(CCCCOC)n1 [Example 112] |  | 2 |
| COC(=O)NCCCc1cc([C@@H](C)N(C(=O)[C@H]2CNCCO2)C2CC2)ncc1OC [Example 121] | 5.4 |  |
| COC[C@H]1CO[C@@H](C(=O)N(C2CC2)[C@@H](C)c2cc(C3CCOCC3)n(CCCNC(=O)OC)n2)CN1 [Example 323] | 2 |  |
| CCc1ccc2c([C@@H](C)N(C(=O)[C@H]3CNCCO3)C3CC3)nn(CCCNC(=O)OC)c2n1 [Example 89] |  | 1 |
| C=C(C)c1sc(C(C)N(C(=O)[C@H]2CNCCO2)C2CC2)cc1CCCNC(=O)OC (stereo partly shown) [Example 411] | 2.2 |  |
| COC(=O)NCCCc1cc(C(C)N(C(=O)[C@H]2CNCCO2)C2CC2)sc1C1CCOCC1 (stereo partly shown) [Example 419] | 1.4 |  |
| COC(=O)NCCCc1cc([C@@H](C)N(C(=O)[C@H]2CNCCO2)C2CC2)cc(C)n1 [Example 97] |  | 8.2 |
| COC(=O)NCCCc1sc([C@@H](C)N(C(=O)[C@H]2CNCCO2)C2CC2)cc1-c1ccccc1C(=O)OC [Example 434] | 2 |  |
| COC(=O)NCCCc1cc([C@@H](C)N(C(=O)[C@H]2CNCCO2)C2CC2)ccc1OC(C)C [Example 107] |  | 0.7 |
| COC(=O)NCCCc1cc(C(C)N(C(=O)[C@H]2CNCCO2)C2CC2)sc1C1CC1 (stereo partly shown) [Example 396] | 4.8 |  |
| COC(=O)NCCCc1nc([C@@H](C)N(C(=O)[C@H]2CNCCO2)C2CC2)nn1-c1cccc(Cl)c1 [Example 365] | 3.5 |  |
| COC(=O)NCCCn1cc([C@H](C)N(C(=O)[C@H]2CNCCO2)C2CC2)c2ccc(C)nc21 [Example 50] |  | 1 |
| COC(=O)NCCCc1sc(C(C)N(C(=O)[C@H]2CNCCO2)C2CC2)cc1-c1ccccc1F (stereo partly shown) [Example 406] | 3.4 |  |
| COCCCOc1nc([C@@H](C)N(C(=O)[C@H]2CNCCO2)C2CC2)cc2ccccc12 [Example 32] |  | 3.3 |

Continued by falling IC50 [1], values first:

| IC50 [1] [nM] | IC50 (read-out: IC50) [nM] | SMILES |
| --- | --- | --- |
| 1.3 |  | COC(=O)NC/C=C/c1cc([C@@H](C)N(C(=O)[C@H]2CNC[C@@H](C)O2)C2CC2)nn1-c1cccc(Cl)c1 [Example 346] |
| 1.3 |  | COC(=O)NCCCn1nc([C@@H](C)N(C(=O)[C@H]2CNCCO2)C2CC2)nc1-c1ccc(C)cc1 [Example 247] |
| 1 |  | COC(=O)NCCCc1cc([C@@H](C)N(C(=O)[C@H]2CN[C@@H](C)CO2)C2CC2)nn1-c1ccc(F)cc1 [Example 371] |
| 0.9 |  | COC(=O)NCCCn1nc([C@@H](C)N(C(=O)[C@H]2CNCCO2)C2CC2)c2c1CCCC2 [Example 189] |
| 0.8 |  | COC(=O)NCCCc1cc([C@@H](C)N(C(=O)[C@H]2CNCCO2)C2CC2)sc1C(C)=O [Example 441] |
| 0.8 |  | CCOc1ncc([C@@H](C)N(C(=O)[C@H]2CNCCO2)C2CC2)cc1CCCNC(=O)OC [Example 251] |
| 0.7 |  | COC(=O)NCCCn1cc([C@@H](C)N(C(=O)[C@H]2CNCCO2)C2CC2)nc1C(C)C [Example 181] |
| 0.7 |  | COC(=O)NCCCc1cc([C@@H](C)N(C(=O)[C@H]2CNC[C@@H](C)O2)C2CC2)nn1-c1cccc(F)c1F [Example 347] |
| 0.6 |  | COC(=O)NCCCn1cc([C@@H](C)N(C(=O)[C@H]2CNCCO2)C2CC2)nc1-c1ccc(C(F)(F)F)cc1 [Example 164] |
| 0.5 |  | COC(=O)NCCCn1cc([C@@H](C)N(C(=O)[C@H]2CNC[C@@H](C(F)(F)F)O2)C2CC2)nc1-c1ccccc1 [Example 203] |
| 0.4 |  | COC[C@@H]1CNC[C@H](C(=O)N(C2CC2)[C@H](C)c2cn(CCCNC(=O)OC)c(C3CCCCC3)n2)O1 [Example 290] |
| 0.4 |  | COC(=O)NCCCn1nc([C@@H](C)N(C(=O)[C@H]2CNCCO2)C2CC2)c(C)c1-c1ncccc1F [Example 234] |
| 0.4 |  | COC(=O)NCCCc1cc([C@@H](C)N(C(=O)[C@H]2CNCCO2)C2CC2)cnc1C1CCCC1 [Example 137] |
| 0.4 |  | COC(=O)NCCCn1nc([C@@H](C)N(C(=O)[C@H]2CNCCO2)C2CC2)cc1-c1cccc(F)c1 [Example 172] |
| 0.3 |  | COC(=O)NCCCc1cc([C@@H](C)N(C(=O)[C@H]2CNCCO2)C2CC2)nn1C(C)(C)C [Example 213] |
| 0.3 |  | COC(=O)NCCCn1cc([C@@H](C)N(C(=O)[C@H]2CNCCO2)C2CC2)nc1-c1ccccc1F [Example 168] |
| 0.3 |  | COC(=O)NCCCn1cc([C@@H](C)N(C(=O)[C@H]2CN[C@@H](C)CO2)C2CC2)nc1-c1ccc(F)cc1 [Example 280] |
| 0.2 |  | COC(=O)NCCCn1cc([C@@H](C)N(C(=O)[C@H]2CNC[C@@H](C)O2)C2CC2)nc1-c1ccccc1 [Example 202] |
| 0.2 |  | COC(=O)NCCCc1cc([C@@H](C)N(C(=O)[C@H]2CNCCO2)C2CC2)sc1-c1cnn(C)c1 [Example 240] |
